Common to all, as to assay type: in vivo
The test system of experiment [1] is mice. Nature of the experiment: Motor activity in mice (activity meters with photoelectric cells). Conditions: comparison of isomers; 32 mg/kg orally; in particular stimulant action. The method, then: The motor activity was determined with the aid of activity meters having photoelectric cells (Boissier and Simon, Arch. int. Pharmacodyn. 1965, 158, 212-221). A minimum of 10 animals was always used per batch.
The mice are placed in the activity meter just after the oral or intraperitoneal administration of the product acccording to the invention, obtained in accordance with Example I. The motor activity is measured as from the introduction into the activity meter up to the 60th minute. The counters are read after 30 minutes, then reset to 0 and read every 10 minutes for 30 minutes.

Experiment [2] deals with mice. Briefly: Action on the toxicity of yohimbine to mice. Conditions: Table Va, yohimbine hydrochloride 25 mg.kg^-1 s.c. The method, then: Action on the toxicity of yohimbine to mice
At time 0, the mice receive, by oral administration, either distilled water or the medicament according to the invention; after 30 minutes, yohimbine hydrochloride (25 mg.kg^-1) is administered subcutaneously to the mice. The mortality is followed every hour for 4 hours and then recorded after 24 hours.

The test system of experiment [3] is mice. Briefly: Anti-oxotremorine activity in mice (hypothermia induced by oxotremorine). The note with it: at the doses studied, oral or intraperitoneal. The method, then: Anti-oxotremorine activity in mice
At time 0, the mice receive oxotremorine (0.5 mg.kg^-1) by intraperitoneal administration; after 30 minutes, either distilled water or the medicament according to the invention, obtained in accordance with Example I, is administered to the mice intraperitoneally or orally.
The mice are then observed and the trembling is rated from 0 to 3 as a function of its intensity, every 10 minutes for 30 minutes. Moreover, the existence of peripheral symptoms (tears, hypersialosis and defections) is observed for 2 hours, in the presence or absence of trembling. The rectal temperature is measured every 30 minutes for 2 hours, after administration of oxotremorine.

Another experiment concerns rats. Briefly: Study of the stereotypies in rats. Conditions: rats. The method, then:
Study of the stereotypies in rats
The tests were carried out on batches of 6 rats for each dose; immediately after the oral or intraperitoneal administration, the animals are placed in individual, transparent plastic 20×10×10 cm boxes provided with a pierced stainless steel lid. The stereotyped movements are rated from 0 to 3, in accordance with the method described by Simon and Chermat (J. Pharmacol. (Paris), 1972, 3, 235-238) every 10 minutes until they disappear in all the animals. The detailed curves are plotted and the surface area of the curve is calculated as described in the above reference.

This is an account of results in US4287206A, “Halogen derivatives of 8-hydroxycarboxylic acids; the processes for their preparation and medicaments in which they are present” (priority 1978, dated 1981).

As for `CC1CC(c2ccc(Cl)cc2)C(c2ccccc2)C(=O)O1` (stereo not drawn) [100% of β, Trans-4-(4'-chlorophenyl)-6-methyl-3phenyl-3,4,5,6-tetrahydropyrone-2, IIIβ], in the experiment with mice [1], the “activity compared with the mixture of 80 % of α and 20 % of β” value was “more active”.
“Threo-2-(4'-chlorophenyl)-4-hydroxy-1-phenylpentanecarbonitrile [Example II]”: the “Mortality in % after the administration of yohimbine” value (from here on “Mortality in %”) in the experiment with mice [2] (2 mg/kg oral, 4 hours) is given as 0%; with mice [2] (2 mg/kg oral, 24 hours) it was 0%; in the experiment with mice [2] (4 mg/kg oral, 4 hours), 0%; in the experiment on mice [2] (4 mg/kg oral, 24 hours), 0%; in the experiment on mice [2] (8 mg/kg oral, 4 hours) it was 10%; in the experiment with mice [2] (8 mg/kg oral, 24 hours), 10%. Also, the “Mortality in %” value with mice [2] (16 mg/kg oral, 4 hours) is given as 20%; in the experiment with mice [2] (16 mg/kg oral, 24 hours), 20%; in the experiment on mice [2] (32 mg/kg oral, 4 hours) it was 25%; in the experiment on mice [2] (32 mg/kg oral, 24 hours) it was 25%; in the experiment on mice [2] (64 mg/kg oral, 4 hours), 30%; in the experiment with mice [2] (64 mg/kg oral, 24 hours), 30%. Further, the “Mortality in %” value worked out at 60% with mice [2] (128 mg/kg oral, 4 hours); 60% with mice [2] (128 mg/kg oral, 24 hours); 70% in the experiment with mice [2] (256 mg/kg oral, 4 hours); 70% in the experiment with mice [2] (256 mg/kg oral, 24 hours). For the same molecule, in the experiment with mice [3], the “trembling and peripheral symptoms caused by oxotremorine” value is on record as “did not cause any modification”. Besides, in the experiment on rats (figure), the “stereotypy activity, oral versus intraperitoneal administration” value is given as “slightly greater on oral administration”. Also, in the experiment with rats (mean surface area of the curve (figure)), the “dose from which very significant stereotypies are present” value was at least 8 mg/kg.
